{
  "source": "patent US7300937B2",
  "about": "“Derivatives of cyano-aryl (or cyanoheteroaryl)-carbonyl-piperazinyl-pyrimidines, their preparation and application as medication” (Laboratorios del Dr. Esteve, S.A., priority 2001, dated 2007)",
  "key": {"mouse": {"system": "mouse", "experiment": "Anaesthetic activity in mice (IV, loss of three reflexes)", "conditions": "for time of anaesthesia: average time", "quoted_text": "The anaesthetic activity was determined after intravenous (IV) administration of the product under study in three different doses (15, 10 and 5 mg/kg) in the caudal vein of the mouse. The percentage of anaesthetised animals was recorded and the average time of anaesthesia calculated. Mice were considered to be anaesthetised when losing the three reflexes: positional reflex, response to painful stimulus reflex (prick in the tail) and palpebral reflex."}, "[1]": {"system": "body tone and abdominal tone of the rats", "experiment": "Myorelaxant activity in the IRWIN test in rats", "format": "in vivo, rat", "conditions": "80 mg/kg ip", "protocol": "The activity as muscular relaxant of the products of the invention was studied, by evaluating the effect on body tone and abdominal tone of the rats, following the method described by S. IRWIN (Gordon Res. Conf. on Medicinal Chem.,1959. p.133). The rats received the products under study in a dose of 80 mg/kg ip, and at several times after administration (½, 1, 2, 3, 4 and 5 hours) the body and abdominal tone were evaluated, comparing muscle tension to that of the control animals."}, "rat": {"system": "rat", "experiment": "Anaesthetic activity in rats (IV infusion to maintain full anaesthesia for 1 hour)", "conditions": "IV infusion required to maintain full anaesthesia for 1 hour", "quoted_text": "In this test, through the cannulated caudal vein of a rat was perfused a solution of the products under study with a concentration of 10 mg/kg. The rate of perfusion was varied to keep the rats anaesthetised for 1 hour."}, "[2]": {"system": "convulsions induced by IV injection of pentamethylentetrazol (cardiazol)", "experiment": "Anticonvulsive activity in mice (convulsions due to cardiazol)", "format": "in vivo, mouse", "conditions": "for ED50: Mus musculus; for % Activity: mice, cardiazol 45 mg/kg IV"}, "dog": {"system": "dog", "experiment": "Anaesthetic activity in dogs (IV infusion)", "conditions": "IV infusion 5 mg/ml/minute until fully anaesthetised", "quoted_text": "A saline solution of the product in study was perfused by means of a perfusion pump in a concentration and rate of 5 mg/ml/minute, through a cannula inserted in a vein of the front leg."}, "mice": {"system": "mice", "experiment": "Sedative activity in mice (behaviour observation)", "format": "in vivo, mouse", "parameters": "unit not given here", "conditions": "80 mg/kg i.p.", "protocol": "The sedative activity was studied by observing the animals' behaviour after intraperitoneal (i.p.) administration of a dose of 80 mg/kg. This observation was conducted at different times, allowing to know the sedative effect and its duration."}},
  "note": "Counter-ions that a name gives are not always drawn. Marks after values point to notes of the source that are not given here.",
  "data": [
    {"smiles": "CCOc1ccnc(N2CCN(C(=O)c3ccccc3C#N)CC2)n1", "note": "(as salt: HCl) [Example 4, 2-[4-(2-cyanobenzoyl)-1-piperazinyl]-4-ethoxypyrimidine hydrochloride]", "values": [
      {"measurement": "melting point", "value": "147 to 151", "unit": "°C"}
    ]},
    {"smiles": "CCOc1ccnc(N2CCN(C(=O)c3ccccc3C#N)CC2)n1", "note": "[Example 4, 2-[4-(2-cyanobenzoyl)-1-piperazinyl]-4-ethoxypyrimidine hydrochloride]", "values": [
      {"measurement": "% anaesthetised", "setting": "mouse; 5 mg/kg iv", "value": 0, "unit": "%"},
      {"measurement": "% anaesthetised", "setting": "mouse; 10 mg/kg iv", "value": 100, "unit": "%"},
      {"measurement": "time of anaesthesia", "setting": "mouse; 10 mg/kg iv", "value": "2.6 ′"},
      {"measurement": "% anaesthetised", "setting": "mouse; 15 mg/kg iv", "value": 100, "unit": "%"},
      {"measurement": "time of anaesthesia", "setting": "mouse; 15 mg/kg iv", "value": "5.8 ′"},
      {"measurement": "% muscular relaxation", "setting": "[1]; after 1 h.", "value": 100, "unit": "%"},
      {"measurement": "% muscular relaxation", "setting": "[1]; after 2 h.", "value": 100, "unit": "%"},
      {"measurement": "% muscular relaxation", "setting": "[1]; after 3 h.", "value": 70, "unit": "%"},
      {"measurement": "% muscular relaxation", "setting": "[1]; after 4 h.", "value": 33, "unit": "%"},
      {"measurement": "% muscular relaxation", "setting": "[1]; after 5 h.", "value": 0, "unit": "%"},
      {"measurement": "% muscular relaxation", "setting": "[1]; after ½ h.", "value": 100, "unit": "%"},
      {"measurement": "Total dose", "setting": "rat", "value": 56.8, "unit": "mg/kg"},
      {"measurement": "ED50", "setting": "[2]", "value": 25.1, "unit": "mg/kg"},
      {"measurement": "% Activity", "setting": "[2]; 20 mg/kg i.p.", "value": 40, "unit": "%"},
      {"measurement": "% Activity", "setting": "[2]; 40 mg/kg i.p.", "value": 69, "unit": "%"},
      {"measurement": "% Activity", "setting": "[2]; 80 mg/kg i.p.", "value": 87, "unit": "%"},
      {"measurement": "Anaesthetic dose", "setting": "dog", "value": 10.1, "unit": "mg/kg"},
      {"measurement": "Sedative activity", "setting": "mice; 30′", "value": 90},
      {"measurement": "Sedative activity", "setting": "mice; 1 h", "value": 75},
      {"measurement": "Sedative activity", "setting": "mice; 2 h", "value": 75},
      {"measurement": "Sedative activity", "setting": "mice; 3 h", "value": 35},
      {"measurement": "Sedative activity", "setting": "mice; 4 h", "value": 0},
      {"measurement": "Sedative activity", "setting": "mice; 5 h", "value": 0},
      {"measurement": "Sedative activity", "setting": "mice; 24 h", "value": 0}
    ]},
    {"smiles": "CC(C)c1cccc(C(C)C)c1O", "note": "[Propofol, reference compound]", "values": [
      {"measurement": "% anaesthetised", "setting": "mouse; 5 mg/kg iv", "value": 0, "unit": "%"},
      {"measurement": "% anaesthetised", "setting": "mouse; 10 mg/kg iv", "value": 80, "unit": "%"},
      {"measurement": "time of anaesthesia", "setting": "mouse; 10 mg/kg iv", "value": "1 ′"},
      {"measurement": "% anaesthetised", "setting": "mouse; 15 mg/kg iv", "value": 80, "unit": "%"},
      {"measurement": "time of anaesthesia", "setting": "mouse; 15 mg/kg iv", "value": "1.3 ′"},
      {"measurement": "% muscular relaxation", "setting": "[1]; after 1 h.", "value": 100, "unit": "%"},
      {"measurement": "% muscular relaxation", "setting": "[1]; after 2 h.", "value": 70, "unit": "%"},
      {"measurement": "% muscular relaxation", "setting": "[1]; after 3 h.", "value": 0, "unit": "%"},
      {"measurement": "% muscular relaxation", "setting": "[1]; after 4 h.", "value": 0, "unit": "%"},
      {"measurement": "% muscular relaxation", "setting": "[1]; after 5 h.", "value": 0, "unit": "%"},
      {"measurement": "% muscular relaxation", "setting": "[1]; after ½ h.", "value": 100, "unit": "%"},
      {"measurement": "Total dose", "setting": "rat", "value": 67, "unit": "mg/kg"},
      {"measurement": "ED50", "setting": "[2]", "value": 32.5, "unit": "mg/kg"},
      {"measurement": "% Activity", "setting": "[2]; 20 mg/kg i.p.", "value": 33, "unit": "%"},
      {"measurement": "% Activity", "setting": "[2]; 40 mg/kg i.p.", "value": 46, "unit": "%"},
      {"measurement": "% Activity", "setting": "[2]; 80 mg/kg i.p.", "value": 100, "unit": "%"},
      {"measurement": "Anaesthetic dose", "setting": "dog", "value": "21.6* mg/kg"}
    ]},
    {"smiles": "Cc1ccc(-c2nc3ccc(C)cn3c2CC(=O)N(C)C)cc1", "note": "[Zolpidem, reference compound]", "values": [
      {"measurement": "Sedative activity", "setting": "mice; 30′", "value": 100},
      {"measurement": "Sedative activity", "setting": "mice; 1 h", "value": 90},
      {"measurement": "Sedative activity", "setting": "mice; 2 h", "value": 30},
      {"measurement": "Sedative activity", "setting": "mice; 3 h", "value": 0},
      {"measurement": "Sedative activity", "setting": "mice; 4 h", "value": 0},
      {"measurement": "Sedative activity", "setting": "mice; 5 h", "value": 0},
      {"measurement": "Sedative activity", "setting": "mice; 24 h", "value": 0}
    ]}
  ]
}
